Among the test systems are SN12C renal; COLO 205 colon; CCRF-CEM leukemia; A498 renal; HCT-15 colon; NCI-H522 lung; UO-31 renal; EKVX NSCLC; SW-620 colon; OVCAR-3 ovarian.
Test in all cases: DTP human tumour cell line panel, 48 h

The values below come from PubChem BioAssay (NCI).

Each structure is given as a SMILES string. Values joined by “and” are separate entries in the source; they are usually repeats but may differ in a detail not shown here. Equal values may be shown once.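 1) Cells in 96-well plates. 2) Compound, 48 h, 5 concentrations. 3) Linear interpolation between surrounding doses. 4) Unreached endpoint = highest concentration. GI50 marks 50% less growth. TGI marks complete inhibition of growth.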

In the case of `COc1cc2c3c(n(CCCN)c(=O)c2cc1OC)-c1cc2c(cc1/C3=C\CCN)OCO2`, the 50% growth inhibitory concentration (GI50) with SN12C renal was 0.0627 µM; with COLO 205 colon, 4.34 µM; with CCRF-CEM leukemia, 0.196 µM; in the assay on A498 renal it was 35.9 µM; in the assay on HCT-15 colon, 27 µM; with NCI-H522 lung it was 0.2 µM. Further, the values for the GI50 with UO-31 renal, with EKVX NSCLC and with SW-620 colon were 13.5 µM, 5.07 µM and 3.56 µM, respectively. Besides, the TGI in the assay with SN12C renal is 3.81 µM; in the assay on COLO 205 colon it was 33.5 µM; with CCRF-CEM leukemia, 36.5 µM; in the assay on A498 renal it was 97.2 µM; with HCT-15 colon it was more than 100 µM; in the assay with NCI-H522 lung, 3.08 µM. Further, the concentration for total growth inhibition (TGI) in the assay with UO-31 renal is 45.7 µM; with EKVX NSCLC, 15.9 µM; with SW-620 colon, more than 66.2 µM; in the assay on OVCAR-3 ovarian, more than 23.5 µM.
In the case of `O=C1/C(=C/c2ccccc2)CN(C(=O)c2cccnc2)C/C1=C\c1ccccc1`, the GI50 in the assay on SN12C renal was 2.39 µM; with COLO 205 colon, 1.55 µM; with CCRF-CEM leukemia, 0.558 µM; in the assay with A498 renal it was 2.19 µM; with HCT-15 colon, 0.331 µM; in the assay with NCI-H522 lung it was 1.57 µM. Also, the GI50 was 1.4 µM in the assay on UO-31 renal, 2.86 µM in the assay with EKVX NSCLC, 0.33 µM in the assay on SW-620 colon and 0.505 µM in the assay on OVCAR-3 ovarian. The total growth inhibition concentration (TGI) in the assay on SN12C renal amounted to 7.96 µM; with COLO 205 colon it was 3.67 µM; with CCRF-CEM leukemia it was 6.05 µM; with A498 renal it was 5.42 µM; in the assay on HCT-15 colon, 1.38 µM; in the assay on NCI-H522 lung, 3.66 µM. Moreover, the concentration for total growth inhibition (TGI) in the assay on UO-31 renal came to 2.9 µM; with EKVX NSCLC it was 11.1 µM; in the assay with SW-620 colon it was 1.8 µM; with OVCAR-3 ovarian, 1.71 µM.
On to `Nc1c(Br)cc(Br)c2c1[nH]c(=O)c1ccccc12`, for which the GI50 in the assay on SN12C renal is 8.09 µM; in the assay with COLO 205 colon, 22.1 µM; in the assay on CCRF-CEM leukemia, 14 µM; in the assay on A498 renal it was 1.68 µM; in the assay with HCT-15 colon it was 60.1 µM; in the assay with NCI-H522 lung, 50.9 µM. Moreover, the GI50 is 2.17 µM in the assay on UO-31 renal, 1.36 µM in the assay on EKVX NSCLC, 23.1 µM in the assay with SW-620 colon and 11.5 µM in the assay with OVCAR-3 ovarian. For the same molecule, the concentration for total growth inhibition (TGI) is more than 100 µM in the assay on SN12C renal; more than 100 µM with COLO 205 colon; more than 81.8 µM in the assay with CCRF-CEM leukemia; 4.86 µM in the assay on A498 renal; more than 100 µM with HCT-15 colon; more than 100 µM in the assay with NCI-H522 lung. The TGI was 5.9 µM in the assay with UO-31 renal, 11.1 µM in the assay on EKVX NSCLC, more than 100 µM in the assay with SW-620 colon and 43.4 µM in the assay on OVCAR-3 ovarian.
For the molecule `O=C(/C=C/c1cccnc1)NCCCCC1CCCN(C(=O)c2ccccc2)C1` (stereo not drawn), the 50% growth inhibitory concentration (GI50) in the assay on SN12C renal is less than 0.01 µM; with COLO 205 colon, 0.75 µM; with CCRF-CEM leukemia, less than 0.01 µM; in the assay with A498 renal, more than 61.1 µM; in the assay on HCT-15 colon, less than 0.01 µM; with NCI-H522 lung it was less than 0.01 µM. The GI50 is more than 62.8 µM in the assay on UO-31 renal, more than 63.1 µM in the assay with EKVX NSCLC, less than 0.01 µM in the assay on SW-620 colon and more than 47.9 µM in the assay on OVCAR-3 ovarian. Besides, the total growth inhibition concentration (TGI) with SN12C renal, with COLO 205 colon, in the assay on CCRF-CEM leukemia, in the assay on A498 renal, with HCT-15 colon and in the assay with NCI-H522 lung was more than 100 µM each time. Also, the TGI in the assay on UO-31 renal, with EKVX NSCLC, in the assay with SW-620 colon and with OVCAR-3 ovarian was more than 100 µM in each case.
As to `COC(=O)c1c2c(c(C)[n+]([O-])c1C)C(=O)C=C(NCc1ccc(F)c(Cl)c1)C2=O`, the GI50 was 0.31 µM in the assay with SN12C renal; 0.245 µM in the assay on COLO 205 colon; 0.475 µM with CCRF-CEM leukemia; 0.437 µM in the assay on A498 renal; 0.0855 µM in the assay on HCT-15 colon; 0.266 µM with NCI-H522 lung. Further, the GI50 in the assay with UO-31 renal is 1.05 µM; in the assay with EKVX NSCLC, 0.592 µM; in the assay on SW-620 colon it was 0.112 µM; in the assay with OVCAR-3 ovarian, 0.201 µM. Also, the TGI in the assay on SN12C renal was determined as 1.28 µM; in the assay with COLO 205 colon, 0.863 µM; with CCRF-CEM leukemia it was 4.71 µM; in the assay with A498 renal, 2.05 µM; with HCT-15 colon, 1.63 µM; in the assay with NCI-H522 lung it was 1.7 µM. Besides, the total growth inhibition concentration (TGI) with UO-31 renal worked out at 2.37 µM; in the assay with EKVX NSCLC it was 2.27 µM; in the assay with SW-620 colon, 1.32 µM; with OVCAR-3 ovarian, 0.628 µM.
In the case of `NC(N)=N/N=C\c1cccc(OCc2ccccc2)c1`, the GI50 in the assay on SN12C renal was 4.33 µM; with COLO 205 colon it was 1.78 µM; in the assay on CCRF-CEM leukemia, 9.53 µM; with A498 renal it was 11.4 µM; in the assay with HCT-15 colon it was 3.29 µM; in the assay on NCI-H522 lung it was 2.16 µM. Moreover, the GI50 was 7.35 µM in the assay on UO-31 renal, 11 µM in the assay on EKVX NSCLC, 1.68 µM in the assay on SW-620 colon and 6.51 µM in the assay with OVCAR-3 ovarian. Besides, the TGI in the assay on SN12C renal turned out to be 17.6 µM; with COLO 205 colon, 3.36 µM; in the assay with CCRF-CEM leukemia, 33.7 µM; with A498 renal, 23.5 µM; in the assay with HCT-15 colon, 12.9 µM; in the assay with NCI-H522 lung it was 11.3 µM. Besides, the TGI in the assay on UO-31 renal is 27.9 µM; in the assay with EKVX NSCLC, 25.4 µM; with SW-620 colon it was 3.33 µM; with OVCAR-3 ovarian, 23 µM.
As for `O=[N+]([O-])c1nccn1CC(O)CN1CC1` (stereo not drawn), the TGI in the assay with SN12C renal was more than 100 µM; in the assay with COLO 205 colon, more than 100 µM; in the assay with CCRF-CEM leukemia, more than 100 µM; with A498 renal, more than 100 µM; with HCT-15 colon, more than 100 µM; with NCI-H522 lung it was 50.9 µM. Besides, the concentration for total growth inhibition (TGI) with UO-31 renal, in the assay on EKVX NSCLC, with SW-620 colon and in the assay with OVCAR-3 ovarian was more than 100 µM throughout.
For `COc1ncc(-c2ccc3nccc(-c4ccnnc4)c3c2)cc1NS(=O)(=O)c1ccc(F)cc1F`, the concentration for 50% growth inhibition (GI50) is 0.0111 µM and < 0.01 µM with SN12C renal; 0.00561 µM and < 0.01 µM in the assay with COLO 205 colon; 0.0333 µM and 0.0262 µM in the assay with CCRF-CEM leukemia; 0.0015 µM in the assay with A498 renal; 0.00632 µM and < 0.01 µM with HCT-15 colon; 0.0147 µM and < 0.0104 µM with NCI-H522 lung. Further, the GI50 in the assay with UO-31 renal was 0.00213 µM and < 0.01 µM; in the assay on EKVX NSCLC, 0.0138 µM and 0.013 µM; with SW-620 colon, 0.0151 µM and 0.0225 µM; with OVCAR-3 ovarian, 0.00901 µM and < 0.0109 µM. Moreover, the TGI with SN12C renal was more than 100 µM; in the assay with COLO 205 colon, 0.542 µM and 0.257 µM; in the assay on CCRF-CEM leukemia, 0.706 µM and 4.04 µM; with A498 renal it was 0.00826 µM; in the assay on HCT-15 colon, > 4.83 µM and 5.11 µM; in the assay with NCI-H522 lung, 2.16 µM and 2.58 µM. Moreover, the TGI is 1.23 µM and 1.73 µM in the assay with EKVX NSCLC; > 4.47 µM and 1.92 µM in the assay on SW-620 colon; 0.763 µM and 0.376 µM in the assay with OVCAR-3 ovarian.
